Measured values published in US10322111B2, “Chemokine receptor binding heterocyclic compounds with enhanced efficacy” (Genzyme Corporation, priority 2001, dated 2019).
Where two headings read alike, the source gives them in different places.

Legend:
[1] = test system: CFU-GM, BFU-E and CFU-GEMM progenitor cells; conditions: 80 μg/kg s.c.; for % CHG, BFU-E, methylcellulose culture / % CHG, CFU-GEMM, methylcellulose culture / % CHG, CFU-GM, methylcellulose culture / mean fold change compared to T 0, BFU-E, methylcellulose culture, MEAN / mean fold change compared to T 0, CFU-GEMM, methylcellulose culture, MEAN / mean fold change compared to T 0, CFU-GM, methylcellulose culture, MEAN: all five donors
[2] = test system: progenitor cells; conditions: mice, AMD3100 5 mg/Kg s.c. + MIP-1α 5 μg I.V., 11 hours after rhu G-CSF or saline, blood 1 hour later
Experimental: One hour later, the mice were sacrificed and the number of progenitor cells per mL of blood were measured.

SMILES: c1cc(CN2CCCNCCNCCCNCC2)ccc1CN1CCCNCCNCCCNCC1 [AMD3100, 1,1′-[1,4-phenylene-bis(methylene)]-bis-1,4,8,11-tetraazacyclotetradecane]
- Absolute # of Progenitors per ML, BFU-E ([1]; P4, T = 1 h after injection): 672 per ML
- Absolute # of Progenitors per ML, CFU-GEMM ([1]; P4, T = 1 h after injection): 199 per ML
- Absolute # of Progenitors per ML, CFU-GM ([1]; P4, T = 1 h after injection): 947 per ML
- fold change from T=0, progenitors BFU-E, methylcellulose culture ([1]; P4, T = 1 h after injection): 1.46 fold
- fold change from T=0, progenitors CFU-GEMM, methylcellulose culture ([1]; P4, T = 1 h after injection): 1.96 fold
- fold change from T=0, progenitors CFU-GM, methylcellulose culture ([1]; P4, T = 1 h after injection): 6.87 fold
- Absolute # of Progenitors per ML, BFU-E ([1]; P4, T = 3 h after injection): 1195 per ML
- Absolute # of Progenitors per ML, CFU-GEMM ([1]; P4, T = 3 h after injection): 519 per ML
- Absolute # of Progenitors per ML, CFU-GM ([1]; P4, T = 3 h after injection): 2857 per ML
- fold change from T=0, progenitors BFU-E, methylcellulose culture ([1]; P4, T = 3 h after injection): 2.60 fold
- fold change from T=0, progenitors CFU-GEMM, methylcellulose culture ([1]; P4, T = 3 h after injection): 5.14 fold
- fold change from T=0, progenitors CFU-GM, methylcellulose culture ([1]; P4, T = 3 h after injection): 20.72 fold
- Absolute # of Progenitors per ML, BFU-E ([1]; P4, T = 6 h after injection): 1533 per ML
- Absolute # of Progenitors per ML, CFU-GEMM ([1]; P4, T = 6 h after injection): 920 per ML
- Absolute # of Progenitors per ML, CFU-GM ([1]; P4, T = 6 h after injection): 3936 per ML
- fold change from T=0, progenitors BFU-E, methylcellulose culture ([1]; P4, T = 6 h after injection): 3.34 fold
- fold change from T=0, progenitors CFU-GEMM, methylcellulose culture ([1]; P4, T = 6 h after injection): 9.10 fold
- fold change from T=0, progenitors CFU-GM, methylcellulose culture ([1]; P4, T = 6 h after injection): 28.54 fold
- Absolute # of Progenitors per ML, BFU-E ([1]; P4, T = 9 h after injection): 1348 per ML
- Absolute # of Progenitors per ML, CFU-GEMM ([1]; P4, T = 9 h after injection): 457 per ML
- Absolute # of Progenitors per ML, CFU-GM ([1]; P4, T = 9 h after injection): 1942 per ML
- fold change from T=0, progenitors BFU-E, methylcellulose culture ([1]; P4, T = 9 h after injection): 2.93 fold
- fold change from T=0, progenitors CFU-GEMM, methylcellulose culture ([1]; P4, T = 9 h after injection): 4.52 fold
- fold change from T=0, progenitors CFU-GM, methylcellulose culture ([1]; P4, T = 9 h after injection): 14.08 fold
- Absolute # of Progenitors per ML, BFU-E ([1]; P4, T = 24 h after injection): 362 per ML
- Absolute # of Progenitors per ML, CFU-GEMM ([1]; P4, T = 24 h after injection): 99 per ML
- Absolute # of Progenitors per ML, CFU-GM ([1]; P4, T = 24 h after injection): 208 per ML
- fold change from T=0, progenitors BFU-E, methylcellulose culture ([1]; P4, T = 24 h after injection): 0.79 fold
- fold change from T=0, progenitors CFU-GEMM, methylcellulose culture ([1]; P4, T = 24 h after injection): 0.98 fold
- fold change from T=0, progenitors CFU-GM, methylcellulose culture ([1]; P4, T = 24 h after injection): 1.51 fold
- Absolute # of Progenitors per ML, BFU-E ([1]; P5, T = 1 h after injection): 730 per ML
- Absolute # of Progenitors per ML, CFU-GEMM ([1]; P5, T = 1 h after injection): 169 per ML
- Absolute # of Progenitors per ML, CFU-GM ([1]; P5, T = 1 h after injection): 481 per ML
- fold change from T=0, progenitors BFU-E, methylcellulose culture ([1]; P5, T = 1 h after injection): 2.13 fold
- fold change from T=0, progenitors CFU-GEMM, methylcellulose culture ([1]; P5, T = 1 h after injection): 3.07 fold
- fold change from T=0, progenitors CFU-GM, methylcellulose culture ([1]; P5, T = 1 h after injection): 2.84 fold
- Absolute # of Progenitors per ML, BFU-E ([1]; P5, T = 3 h after injection): 1288 per ML
- Absolute # of Progenitors per ML, CFU-GEMM ([1]; P5, T = 3 h after injection): 244 per ML
- Absolute # of Progenitors per ML, CFU-GM ([1]; P5, T = 3 h after injection): 1423 per ML
- fold change from T=0, progenitors BFU-E, methylcellulose culture ([1]; P5, T = 3 h after injection): 3.75 fold
- fold change from T=0, progenitors CFU-GM, methylcellulose culture ([1]; P5, T = 3 h after injection): 8.40 fold
- Absolute # of Progenitors per ML, BFU-E ([1]; P5, T = 6 h after injection): 3208 per ML
- Absolute # of Progenitors per ML, CFU-GEMM ([1]; P5, T = 6 h after injection): 987 per ML
- Absolute # of Progenitors per ML, CFU-GM ([1]; P5, T = 6 h after injection): 3454 per ML
- fold change from T=0, progenitors BFU-E, methylcellulose culture ([1]; P5, T = 6 h after injection): 9.35 fold
- fold change from T=0, progenitors CFU-GEMM, methylcellulose culture ([1]; P5, T = 6 h after injection): 17.92 fold
- fold change from T=0, progenitors CFU-GM, methylcellulose culture ([1]; P5, T = 6 h after injection): 20.39 fold
- Absolute # of Progenitors per ML, BFU-E ([1]; P5, T = 9 h after injection): 1731 per ML
- Absolute # of Progenitors per ML, CFU-GEMM ([1]; P5, T = 9 h after injection): 526 per ML
- Absolute # of Progenitors per ML, CFU-GM ([1]; P5, T = 9 h after injection): 1710 per ML
- fold change from T=0, progenitors BFU-E, methylcellulose culture ([1]; P5, T = 9 h after injection): 5.05 fold
- fold change from T=0, progenitors CFU-GEMM, methylcellulose culture ([1]; P5, T = 9 h after injection): 9.55 fold
- fold change from T=0, progenitors CFU-GM, methylcellulose culture ([1]; P5, T = 9 h after injection): 10.09 fold
- Absolute # of Progenitors per ML, BFU-E ([1]; P5, T = 24 h after injection): 495 per ML
- Absolute # of Progenitors per ML, CFU-GEMM ([1]; P5, T = 24 h after injection): 124 per ML
- Absolute # of Progenitors per ML, CFU-GM ([1]; P5, T = 24 h after injection): 310 per ML
- fold change from T=0, progenitors BFU-E, methylcellulose culture ([1]; P5, T = 24 h after injection): 1.44 fold
- fold change from T=0, progenitors CFU-GEMM, methylcellulose culture ([1]; P5, T = 24 h after injection): 2.25 fold
- fold change from T=0, progenitors CFU-GM, methylcellulose culture ([1]; P5, T = 24 h after injection): 1.83 fold
- % CHG, BFU-E, methylcellulose culture ([1]; T = 1 h after injection): 98.9%
- % CHG, CFU-GEMM, methylcellulose culture ([1]; T = 1 h after injection): 131.8%
- % CHG, CFU-GM, methylcellulose culture ([1]; T = 1 h after injection): 376.7%
- mean fold change compared to T 0, BFU-E, methylcellulose culture, MEAN ([1]; T = 1 h after injection): 1.99 fold
- mean fold change compared to T 0, CFU-GEMM, methylcellulose culture, MEAN ([1]; T = 1 h after injection): 2.32 fold
- mean fold change compared to T 0, CFU-GM, methylcellulose culture, MEAN ([1]; T = 1 h after injection): 4.77 fold
- % CHG, BFU-E, methylcellulose culture ([1]; T = 3 h after injection): 221.3%
- % CHG, CFU-GEMM, methylcellulose culture ([1]; T = 3 h after injection): 332.5%
- % CHG, CFU-GM, methylcellulose culture ([1]; T = 3 h after injection): 1266.5%
- mean fold change compared to T 0, BFU-E, methylcellulose culture, MEAN ([1]; T = 3 h after injection): 3.21 fold
- mean fold change compared to T 0, CFU-GEMM, methylcellulose culture, MEAN ([1]; T = 3 h after injection): 4.33 fold
- mean fold change compared to T 0, CFU-GM, methylcellulose culture, MEAN ([1]; T = 3 h after injection): 13.66 fold
- % CHG, BFU-E, methylcellulose culture ([1]; T = 6 h after injection): 500.5%
- % CHG, CFU-GEMM, methylcellulose culture ([1]; T = 6 h after injection): 907.2%
- % CHG, CFU-GM, methylcellulose culture ([1]; T = 6 h after injection): 2070.6%
- mean fold change compared to T 0, BFU-E, methylcellulose culture, MEAN ([1]; T = 6 h after injection): 6.01 fold
- mean fold change compared to T 0, CFU-GEMM, methylcellulose culture, MEAN ([1]; T = 6 h after injection): 10.07 fold
- mean fold change compared to T 0, CFU-GM, methylcellulose culture, MEAN ([1]; T = 6 h after injection): 21.71 fold
- % CHG, BFU-E, methylcellulose culture ([1]; T = 9 h after injection): 334.4%
- % CHG, CFU-GEMM, methylcellulose culture ([1]; T = 9 h after injection): 425.4%
- % CHG, CFU-GM, methylcellulose culture ([1]; T = 9 h after injection): 947.3%
- mean fold change compared to T 0, BFU-E, methylcellulose culture, MEAN ([1]; T = 9 h after injection): 4.34 fold
- mean fold change compared to T 0, CFU-GEMM, methylcellulose culture, MEAN ([1]; T = 9 h after injection): 5.25 fold
- mean fold change compared to T 0, CFU-GM, methylcellulose culture, MEAN ([1]; T = 9 h after injection): 10.47 fold
- % CHG, BFU-E, methylcellulose culture ([1]; T = 24 h after injection): 26.3%
- % CHG, CFU-GEMM, methylcellulose culture ([1]; T = 24 h after injection): 53.2%
- % CHG, CFU-GM, methylcellulose culture ([1]; T = 24 h after injection): 55.5%
- mean fold change compared to T 0, BFU-E, methylcellulose culture, MEAN ([1]; T = 24 h after injection): 1.26 fold
- mean fold change compared to T 0, CFU-GEMM, methylcellulose culture, MEAN ([1]; T = 24 h after injection): 1.53 fold
- mean fold change compared to T 0, CFU-GM, methylcellulose culture, MEAN ([1]; T = 24 h after injection): 1.56 fold
- mobilization of progenitor cells in combination with mu MIP-1α [2]: additive to greater than additive
